# Key:
# [1] = tested on: splenic CD8 T cells; experiment: ELIspot for interferon γ of splenic CD8 T cells from immunized mice; format: cell-based, BALB/c mice; details: spleens seven days after second immunization; in vitro stimulation with immunizing 18-mer, 10 µM
# Text: BALB/c mice were immunized with 18-mer peptides containing Ccdc85c^MUT as well as Ccdc85c^WT as described in Methods. Spleens were harvested seven days after the second immunization and splenic CD8 T cells tested by ELIspot for interferon γ production in response to stimulation in vitro with the peptides used for immunization. […] Since the CD8 response detected in vitro was so modest, CD8 response as detected in vivo in the tumor microenvironment became our focus.
# Supplementary Fig. 3. CD8 response to Ccdc85cMUT and Ccdc85cWT peptides. BALB/c mice were immunized twice at a weekly interval with 18-mer peptides containing Ccdc85cWT (left) or Ccdc85cMUT (right) as described in Methods. Spleens were harvested seven days after the second immunization and CD8 T cells stimulated in vitro with the peptides (10 µM concentration) used for immunization, as indicated. CD8 cells were analyzed for release of interferon g. Each dot represents a single mouse. The P values were calculated using two tailed t-test. Data are presented as mean values +/- SD. […]
# [2] = tested on: tumor infiltrating CD45 + cells; experiment: scRNA seq of tumor infiltrating CD45+ cells in immunized mice; format: in vivo, BALB/cJ mice
# Text: Tumor microenvironment (TME) of Ccdc85c^MUT-immunized mice was examined using single cell RNA sequencing (scRNA seq). BMDCs- immunized mice were used as controls. As a peptide control, mice immunized with a neoepitope Alms1^MUT were used. […] Mice were immunized with Ccdc85c^MUT, Alms1^MUT (peptide control) or BMDCs (control) as described in Methods, and were challenged with Meth A. RNA from CD45 + cells (estimated 15,925 cells for the four libraries after QC, with an average coverage of 32,663 reads per cell and median 1,339 genes per cell) was sequenced. Data from the four libraries were pooled and clustered based on the gene expression pattern of each as described in Methods. Annotation of the clusters was informed by both differentially expressed genes (DE Genes) and per cluster highly expressed genes identified by the TF-IDF analysis as described in Methods. Two major and distinct clusters were identified namely, myeloid and lymphoid. […] The proportion of lymphoid versus myeloid compartments in the Ccdc85c^MUT library was very different compared to the Alms1^MUT or control groups. The Ccdc85c^MUT library was mostly composed of lymphoid cells (62.68% lymphoid and 37.32% myeloid), while the control groups and mice immunized with Alms1^MUT were mostly composed of the myeloid compartment (~35% lymphoid and ~64% myeloid) (Fig. 2a, right panel). In order to study different cell types, lymphoid and myeloid clusters were re-clustered into 6 and 9 sub-clusters, respectively (Fig. 2a, bottom panel). The six identified lymphoid clusters were: CD4 T cells (CD4(1)), NKC(1), naive/early activated CD4 T cells (CD4(2), defined by a high expression of Sell, Il7r, Tcf7 and Ccr7 genes and low expression of Il2ra and lack of expression of effector and cytotoxicity genes), NKC(2) (less cytotoxic and active than NKC(1)), CD8 T cells (CD8) and proliferating CD4/CD8 T cells (Pr. CD4/CD8, defined by higher expression of Stmn1 and Mki67 genes and cell cycle gene expression analysis, described in Methods). The selected genes used as markers to annotate each lymphocyte cluster are listed in the summary heat map (Fig. 2b, right panel).
# Fig. 2 Immune response in mice immunized with Ccdc85c^MUT and control neoepitope Alms1.1^MUT. a Tumors from mice immunized with Ccdc85c^MUT or Alms1.1^MUT as well as two groups of control mice immunized with BMDCs were harvested 10 days after tumor challenge. Tumor infiltrating CD45 + cells were sorted and analyzed by scRNA seq as described in Methods and Supplementary Fig 9b. Combined scRNA seq data from four libraries were analyzed. The t-SNE[34] plots of all intra-tumoral immune cells as well as myeloid and lymphoid compartments are shown in the top left panel. Myeloid and lymphoid composition for each library is shown on the right panel. The myeloid and lymphoid sub-clusters are shown in the bottom panels. See text for definition of each sub-cluster. b Heat maps of the indicated genes in the myeloid and lymphoid compartments are shown. The heat map genes were selected from the list of differentially expressed genes, genes with a high average TF-IDF score, and typical cell type markers. The average gene expression for each cluster was normalized by dividing it from the maximum value of each row (gene). c Summary heat map of selected genes associated with cytotoxicity for pooled activated T cells is shown. The heat map illustrates scaled (Z-scored) average gene expression by library. TEXT PRINTED IN THE PICTURE: (a) Alms1.1^MUT: Lymphoid cells: 34.28%; Myeloid cells: 65.72% | (a) Ccdc85c^MUT: Lymphoid cells: 62.68%; Myeloid cells: 37.32% DOUBTS OF THE COPYIST ABOUT THIS PICTURE: Panel a, bar chart: no measure is printed beside the percentages. I assigned them to 'Lymphoid cells' (blue) and 'Myeloid cells' (red) only by matching the colours of the plot next to it. / Panel a, bar chart: the control bars also carry percentages (Cont.1: 35.75% and 64.25%; Cont.2: 37.55% and 62.45%). […]
# [3] = compared to control or Alms1^MUT libraries
# [4] = tumors harvested 10 days after Meth A challenge
sequence,measurement,setting,value
DPSSTYIRPFETKVKLLD [18-mer peptide with the mutant amino acid near the center],CD8 response (interferon γ ELIspot),[1],very modest but statistically significant CD8 response
same,contribution of library to myeloid cluster Mφ1,[2]; Mφ1,~ 20%
same,contribution of library to myeloid cluster Mφ2,"[2]; Mφ2, highest apart from Mφ1",13.4%
same,contribution of library to myeloid cluster Mφ3,"[2]; Mφ3, lowest contribution",1.6%
same,"expression of cytotoxicity (Gzmb, Prf, Nkg7) and effector function (Ifng) genes in T cells",[2]; [3],significantly higher
same,expression of genes involved in TCR engagement (Nr4a1 and Irf4) in T cells,[2]; [3],significantly higher
same,expression of Eomes in T cells,[2]; compared to other libraries,significantly higher
same,contribution of library to pooled activated CD4 and CD8 T cells (clusters 1 and 5),[2]; proliferating CD4/CD8 T excluded,31%
same,"Lymphoid cells, fraction of intra-tumoral immune cells",[2]; [4],62.68%
same,"Myeloid cells, fraction of intra-tumoral immune cells",[2]; [4],37.32%
same,fraction of NK cells from the NKC(1) (more cytotoxic and active) cluster,[2]; [4],~ 80%

# — PMC8571378, “Reversion analysis reveals the in vivo immunogenicity of a poorly MHC I-binding cancer neoepitope” (Nature Communications, 2021)
